Test results published in PubChem BioAssay AID1963862 (Molecular Pharmacology Branch, DTP, NCI, 2024).

System: KRAS patient-derived spheroids with HUVEC/MSC, viability
Assay: Anticancer human tumor 941728-121-R-J1-PDC patient-derived lung adenocarcinoma cell line growth inhibition [KRAS2]
Conditions: for IC50: curve of first compound; for viability, T/C: stronger effect = lower value
From the text: Multicellular complex tumor spheroid response to RAS pathway inhibitors in combination with a targeted agents in patient-derived cell lines with oncogenic KRAS variants from multiple cancer types
A high-throughput screen of multi-cell type tumor spheroids was designed to identify active combinations of targeted small molecules and KRAS pathway inhibitors. Complex spheroids include a stromal component modeled by human endothelial cells (HUVEC) and fibroblasts modeled by human mesenchymal stem cells (MSCs). The concentration ranges selected for each drug and investigational agent were based upon clinically achievable concentrations if the clinical Cmax of the agent was known.
Compounds. The drugs and investigational agents: BI-3406 (NSC825286), BAY-293 (NSC824723), batoprotafib (TNO155; NSC825523), sotorasib (AMG 510; NSC818433), MRTX1257 (NSC819558), elimusertib (BAY 1895344; NSC800525), molibresib (GSK525762; NSC774829), temuterkib (LY3214996; NSC803410), venetoclax (NSC766270), alisertib (NSC759677), olaparib (NSC753686), talazoparib (NSC767125), erdafitinib (NSC781556), ipatasertib (NSC767898), cabozantinib (NSC761068), nintedanib (NSC756659), abemaciclib (NSC768073), docetaxel (NSC628503), trametinib (NSC758246), and sapanisertib (NSC764658) were obtained from the National Cancer Institute (NCI) Developmental Therapeutics Program Chemical Repository. The FDA-approved anticancer drug set is available from the Developmental Therapeutics Program. […] The stock solutions were prepared in dimethyl sulfoxide (DMSO, Sigma-Aldrich, St. Louis, MO, cat. D2650) at 800-fold the tested concentration and stored at -70 degrees C prior to their use. All drugs and investigational agents were tested over a range starting from a high concentration at or near the clinical Cmax and decreasing in half-log increments. If the clinical Cmax for an agent had not been determined, the highest concentration tested was 10 microM.
Cell Culture. All cells were maintained in an incubator at 37 degrees C and 5% CO2 with 95% humidity. The PDC lines were cultured according to standard operating procedures established by the NCI PDMR (https://pdmr.cancer.gov/sops/default.htm). Briefly, all PDCs were thawed and cultured in Matrigel-coated flasks prepared with a working solution of 1X Ham's F-12 nutrient mix, without supplementation (Invitrogen, Waltham, MA, cat. 11765054), 100 U/mL penicillin-streptomycin (Invitrogen, cat. 15140122), and 2.5% Matrigel (Corning Inc., Corning, NY, cat. 354248) for the first three passages. All PDCs were cultured in complete DMEM/F-12 media containing advanced DMEM/F-12 (Invitrogen, cat. 12634028), 4.9% defined fetal bovine serum, heat inactivated (HyClone Laboratories Inc., Logan, UT, cat. SH30070.03HI), 389 ng/mL hydrocortisone (Sigma-Aldrich, cat. H4001), 9.7 ng/mL human EGF recombinant protein (Invitrogen, cat. PHG0313), 23.4 microg/mL adenine (Sigma-Aldrich, cat. A2786), 97.3 U/mL penicillin-streptomycin (Invitrogen, cat. 15140122), 1.9 mM L-glutamine (Invitrogen, cat. 25030081), and 9.7 microM Y-27632 dihydrochloride (Tocris Bioscience, Bristol, United Kingdom, cat. 1254). The PDCs were cultured in complete DMEM/F12 media without 9.7 microM Y-27632 dihydrochloride for at least two passages prior to the screen. The established cell line HOP-62 was cultured in RPMI 1640 medium, HEPES (Invitrogen, cat. 22400105) with 10% defined fetal bovine serum (HyClone Laboratories Inc., cat. SH30070.03) and 2 mM L-glutamine (Invitrogen, cat. 25030081). The pooled donor HUVEC were cultured in endothelial cell growth medium 2 (PromoCell, Heidelberg, Germany, cat. C-22011) and the hMSC were cultured in mesenchymal stem cell growth medium 2 (PromoCell, cat. C-28009). For all experiments, HUVEC and hMSC were used at passages </=5, while the malignant cell lines were used at passages </=15. […]

[1] = second compound 0.1 µM, first compound 0.0316 µM
[2] = second compound 0.316 µM, first compound 0.0316 µM
[3] = second compound 1 µM, first compound 0.0316 µM
[4] = second compound 3.16 µM, first compound 0.0316 µM
[5] = second compound 10 µM, first compound 0.0316 µM
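Further: spheroids exposed to agents for seven days before readout.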

Structure (SMILES): CC(=O)Nc1cccc(-n2c(=O)n(C3CC3)c(=O)c3c(Nc4ccc(I)cc4F)n(C)c(=O)c(C)c32)c1 + C=CC(=O)N1CCN(c2nc(=O)n(-c3c(C)ccnc3C(C)C)c3nc(-c4c(O)cccc4F)c(F)cc23)C(C)C1
- IC50 (second compound 0.1 µM): < 0.1 nM
- IC50 (second compound 0.316 µM): < 0.1 nM
- IC50 (second compound 1 µM): < 0.1 nM
- IC50 (second compound 3.16 µM): < 0.1 nM
- IC50 (second compound 10 µM): < 0.1 nM
- viability, T/C (second compound 0.1 µM, first compound 0.0001 µM): 27.9%
- viability, T/C (second compound 0.1 µM, first compound 0.000316 µM): 26.2%
- viability, T/C (second compound 0.1 µM, first compound 0.001 µM): 20.3%
- viability, T/C (second compound 0.1 µM, first compound 0.00316 µM): 21.6%
- viability, T/C (second compound 0.1 µM, first compound 0.01 µM): 19.6%
- viability, T/C [1]: 19.3%
- viability, T/C (second compound 0.316 µM, first compound 0.0001 µM): 26%
- viability, T/C (second compound 0.316 µM, first compound 0.000316 µM): 25.4%
- viability, T/C (second compound 0.316 µM, first compound 0.001 µM): 24.1%
- viability, T/C (second compound 0.316 µM, first compound 0.00316 µM): 22.9%
- viability, T/C (second compound 0.316 µM, first compound 0.01 µM): 20.2%
- viability, T/C [2]: 19.3%
- viability, T/C (second compound 1 µM, first compound 0.0001 µM): 27.5%
- viability, T/C (second compound 1 µM, first compound 0.000316 µM): 28.3%
- viability, T/C (second compound 1 µM, first compound 0.001 µM): 24.2%
- viability, T/C (second compound 1 µM, first compound 0.00316 µM): 23.6%
- viability, T/C (second compound 1 µM, first compound 0.01 µM): 22.3%
- viability, T/C [3]: 20.4%
- viability, T/C (second compound 3.16 µM, first compound 0.0001 µM): 27.3%
- viability, T/C (second compound 3.16 µM, first compound 0.000316 µM): 30.1%
- viability, T/C (second compound 3.16 µM, first compound 0.001 µM): 26.9%
- viability, T/C (second compound 3.16 µM, first compound 0.00316 µM): 25.9%
- viability, T/C (second compound 3.16 µM, first compound 0.01 µM): 28.6%
- viability, T/C [4]: 23.4%
- viability, T/C (second compound 10 µM, first compound 0.0001 µM): 35.8%
- viability, T/C (second compound 10 µM, first compound 0.000316 µM): 31.4%
- viability, T/C (second compound 10 µM, first compound 0.001 µM): 36.3%
- viability, T/C (second compound 10 µM, first compound 0.00316 µM): 36.2%
- viability, T/C (second compound 10 µM, first compound 0.01 µM): 29.6%
- viability, T/C [5]: 29%

Structure (SMILES): COc1cc(Nc2ncc3c(n2)-c2ccc(Cl)cc2C(c2c(F)cccc2OC)=NC3)ccc1C(=O)O + C=CC(=O)N1CCN(c2nc(=O)n(-c3c(C)ccnc3C(C)C)c3nc(-c4c(O)cccc4F)c(F)cc23)C(C)C1
- IC50 (second compound 0.1 µM): < 31.6 nM
- IC50 (second compound 0.316 µM): < 31.6 nM
- IC50 (second compound 1 µM): < 31.6 nM
- IC50 (second compound 3.16 µM): < 31.6 nM
- IC50 (second compound 10 µM): < 31.6 nM
- viability, T/C [1]: 24.9%
- viability, T/C (second compound 0.1 µM, first compound 0.1 µM): 17.2%
- viability, T/C (second compound 0.1 µM, first compound 0.316 µM): 16%
- viability, T/C (second compound 0.1 µM, first compound 1 µM): 22.7%
- viability, T/C (second compound 0.1 µM, first compound 3.16 µM): 25.7%
- viability, T/C (second compound 0.1 µM, first compound 10 µM): 17.3%
- viability, T/C [2]: 29.3%
- viability, T/C (second compound 0.316 µM, first compound 0.1 µM): 26.2%
- viability, T/C (second compound 0.316 µM, first compound 0.316 µM): 26.3%
- viability, T/C (second compound 0.316 µM, first compound 1 µM): 25.5%
- viability, T/C (second compound 0.316 µM, first compound 3.16 µM): 24.4%
- viability, T/C (second compound 0.316 µM, first compound 10 µM): 16.7%
- viability, T/C [3]: 17.9%
- viability, T/C (second compound 1 µM, first compound 0.1 µM): 27.4%
- viability, T/C (second compound 1 µM, first compound 0.316 µM): 31%
- viability, T/C (second compound 1 µM, first compound 1 µM): 26.4%
- viability, T/C (second compound 1 µM, first compound 3.16 µM): 24.1%
- viability, T/C (second compound 1 µM, first compound 10 µM): 21%
- viability, T/C [4]: 25.5%
- viability, T/C (second compound 3.16 µM, first compound 0.1 µM): 29.6%
- viability, T/C (second compound 3.16 µM, first compound 0.316 µM): 31.5%
- viability, T/C (second compound 3.16 µM, first compound 1 µM): 29%
- viability, T/C (second compound 3.16 µM, first compound 3.16 µM): 25.7%
- viability, T/C (second compound 3.16 µM, first compound 10 µM): 22.4%
- viability, T/C [5]: 37%
- viability, T/C (second compound 10 µM, first compound 0.1 µM): 38.5%
- viability, T/C (second compound 10 µM, first compound 0.316 µM): 35.2%
- viability, T/C (second compound 10 µM, first compound 1 µM): 32%
- viability, T/C (second compound 10 µM, first compound 3.16 µM): 28.1%
- viability, T/C (second compound 10 µM, first compound 10 µM): 25.8%
